# Test results published in US20120115941A1, “Compounds Affecting Glycemic Index” (SACRON INNOVATIONS PTY LIMITED, priority 2009, published 2012).
# Where two headings read alike, the source gives them in different places.
# Tests used:
# Format in all cases: biochemical
# [1] = tested on: rat intestinal α-glucosidase; experiment: Mammalian α-glucosidase inhibition assay (rat intestinal acetone powder, maltose substrate)
# Method: (§1) Bakers yeast α-glucosidase [EC 3.2.1.20], and porcine pancreatic α-amylase [EC 3.2.1.1]were used during bioassay guided fractionation. Rat intestinal acetone powder was used as a source of mammalian α-glucosidase. The EnzChek® Ultra Amylase Assay kit (E-33651) was purchased from Molecular Probes (Eugene, Oreg., USA).
# (§2) In each bioassay the hydrolysis product was measured using the Victor 2 multi-plate reader (Wallac, Turku, Finland) and all samples were tested in duplicate or triplicate. Non-enzyme controls were subtracted from the enzyme absorbance and the percentage inhibition of test samples was calculated as: […]
# (§3) :wherein A and B are the absorbance of the hydrolysis product in the absence and presence of inhibitor, respectively. Percent inhibition values were expressed as mean±standard deviation. The IC50 was the concentration required for 50% inhibition of enzyme activity under the assay conditions, and values were calculated using a four-parameter fit by Microsoft Excel Solver.
# Mammalian α-Glucosidase Inhibition Assay
# The α-glucosidase inhibitory activity of pure compounds was measured as described previously, with some modifications. The crude enzyme solution was prepared by suspending 50 mg of rat intestinal acetone powder in 0.9% sodium chloride solution (1.5 mL). The mixture was homogenised by sonication in ice-cold water for 10 minutes and then centrifuged at 10,000 g for 30 minutes. The resulting supernatant was used in the assay.
# The substrate maltose (3 mM, 20 μL) was added to 96-well plates containing the crude α-glucosidase mixture (20 μL) and sample (10 μL). The microtitre plate was mixed on an orbital shaker for 30 seconds, incubated for 30 minutes at 37° C. and the reaction was stopped by the addition of 2 M Tris buffer (75 μL ). The glucose liberated was measured by adding 30 μL of the reaction mixture to the Glucose Hexokinase assay reagent (170 μL), which was mixed and incubated for 15 minutes at room temperature. The fluorescence of the mixture was measured at λex 340 nm, λem 470 nm.
# [2] = target: T1, porcine pancreatic α-amylase (Sus scrofa, UniProt P00690); experiment: Porcine α-amylase inhibition assay (EnzChek Ultra Amylase Assay kit)
# T1 sequence (P00690 16-511): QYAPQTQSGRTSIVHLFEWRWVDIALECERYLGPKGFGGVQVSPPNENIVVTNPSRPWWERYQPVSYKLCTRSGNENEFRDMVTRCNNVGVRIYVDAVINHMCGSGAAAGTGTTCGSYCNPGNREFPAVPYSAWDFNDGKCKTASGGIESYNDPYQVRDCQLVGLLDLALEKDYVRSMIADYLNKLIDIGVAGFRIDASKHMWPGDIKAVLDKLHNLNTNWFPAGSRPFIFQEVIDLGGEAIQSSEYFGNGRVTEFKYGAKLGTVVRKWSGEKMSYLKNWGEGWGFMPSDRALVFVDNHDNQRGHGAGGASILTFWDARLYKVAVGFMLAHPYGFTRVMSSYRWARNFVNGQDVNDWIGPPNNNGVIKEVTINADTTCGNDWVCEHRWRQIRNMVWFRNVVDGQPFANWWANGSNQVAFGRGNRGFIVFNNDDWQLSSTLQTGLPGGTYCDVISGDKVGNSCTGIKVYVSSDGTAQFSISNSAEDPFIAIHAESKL
# Method: Bakers yeast α-glucosidase [EC 3.2.1.20], and porcine pancreatic α-amylase [EC 3.2.1.1]were used during bioassay guided fractionation. Rat intestinal acetone powder was used as a source of mammalian α-glucosidase.
# as §2
# :wherein A and B are the absorbance of the hydrolysis product in the absence and presence of inhibitor, respectively. Percent inhibition values were expressed as mean±standard deviation.
# Porcine α-Amylase Inhibition Assay
# This assay was performed using the EnzChek® Ultra Amylase Assay kit. Samples were dissolved in DMSO and diluted with 100 mM of 3-morpholinopropanesulfonic acid (MOPS) buffer (pH 6.9) to give a final concentration of […], unless otherwise stated.
# [3] = target: Bakers yeast α-glucosidase; experiment: Yeast α-glucosidase inhibition assay
# Method: as §1, §2, §3
# Yeast α-Glucosidase Inhibition Assay
# Extracts and fractions were dissolved in DMSO at 30 mg/mL or 10 mM for pure compounds, and diluted to working concentrations in sodium acetate buffer (pH 5.5). Final sample concentrations were 50 μg/mL, unless otherwise stated. The substrate, 4-methylumbelliferyl-α-D-glucopyranoside (84 μM, 45 μL), was added to 96-well plates containing 50 μL yeast α-glucosidase (3 mU/mL) and 5 μL of sample. The plate was mixed on an orbital shaker for 30 seconds and incubated for 20 minutes at 37° C. The reaction was stopped by the addition of 100 mM sodium-glycine buffer (100 μL, pH 10.6) and the plate was shaken for a further 30 seconds and the fluorescence intensity was measured at λex 355 nm, λem 460 nm. Fucoidan (20 μg/mL) was used as a positive inhibitor control, and sodium acetate buffer as a negative control.
# [4] = porcine α-amylase, read-out: Amylase (porcine) IC50
Compound,Glucosidase (rat) % Inhibition at 200 μM [1] [%],"IC50 ([2]; Amylase (porcine) IC50, porcine α-amylase) [µM]",IC50 [3] [µM],"IC50 [2, 4] [µM]",Glucosidase (rat) % Inhibition at 200 μM ([1]; 200 µM) [%],"activity against porcine α-amylase, fold greater than acarbose ([2]; relative to acarbose) [fold]",Glucosidase (yeast) IC50 ([3]; unit given in the name cell for fucoidan) [µg/mL]
"COc1cc(-c2cc(=O)c3c(O)cc(O)cc3o2)cc(OC)c1O [Compound 4, Tricin, reference compound]",16.1,104,70.6,–,–,–,–
"COc1cc(C(OC)C(CO)Oc2c(OC)cc(-c3cc(=O)c4c(O)cc(O)cc4o3)cc2OC)ccc1O (stereo not drawn) [Compound 5, tricin-4′-O-[threo-β-guaiacyl-(7″-O-methyl)-glyceryl]ether]",6.1,–,95.9,31.9,–,–,–
"COc1cc(C(OC)C(CO)Oc2c(OC)cc(-c3cc(=O)c4c(O)cc(O)cc4o3)cc2OC)ccc1O (stereo not drawn) [Compound 6, tricin-4′-O-[erythro-β-guaiacyl-(7″-O-methyl)-glyceryl]ether]",6.1,–,72,26.5,–,–,–
"COc1cc(C(O)C(COC(=O)C=Cc2ccc(O)cc2)Oc2c(OC)cc(-c3cc(=O)c4c(O)cc(O)cc4o3)cc2OC)ccc1O (stereo not drawn) [Compound 7, tricin-4′-O-[erythro-β-guaiacyl-(9″-O-p-coumaroyl)-glyceryl]ether]",–,–,37.5,2,25.7,–,–
"COc1cc(C(O)C(COC(=O)C=Cc2ccc(O)cc2)Oc2c(OC)cc(-c3cc(=O)c4c(O)cc(O)cc4o3)cc2OC)ccc1O (stereo not drawn) [Compound 8, tricin-4′-O-[threo-β-guaiacyl-(9″-O-p-coumaroyl)-glyceryl]ether]",–,–,37.9,0.9,10.0,130,–
"O=c1cc(-c2ccc(O)cc2)oc2cc(O)cc(O)c12 [Compound 18, Apigenin, reference compound]",−12.2,–,108,–,–,–,–
"O=c1cc(-c2ccc(O)c(O)c2)oc2cc(O)cc(O)c12 [Compound 19, Luteolin, reference compound]",4.8,–,92.3,99.5,–,–,–
Fucoidan [reference compound],–,–,–,–,–,–,0.82
